Measurements as given in PubChem BioAssay AID248 (DTP/NCI, 2004).
“And” between values parts separate entries of the source, which are not always exact repeats. Equal values may be shown once. Inconclusive results and toxic doses are left out. Cut-off read from the data, not from the text of the source: active = T/C of 150% or more; inactive = T/C below 125%.

System: L1210 leukemia ip in BDF1 mice, survival T/C
Test: NCI In Vivo Anticancer Drug Screen. Data for tumor model L1210 Leukemia (intraperitoneal) in B6D2F1 (BDF1) mice
Conditions: endpoint: mean survival time, higher = longer survival
How it was run: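 Ratio derived from survival: compound-dosed mice over vehicle-dosed mice, all bearing a transplantable tumor.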

[1] = dose: 50.0 mg/kg/injection, schedule: Q01DX001 (ip), vehicle: saline
[2] = dose: 100.0 mg/kg/injection, schedule: Q01DX001 (ip), vehicle: saline
[3] = dose: 100.0 mg/kg/injection, schedule: Q01DX009 (ip), vehicle: Klucel (hydroxypropylcellulose) (HPC)
[4] = dose: 200.0 mg/kg/injection, schedule: Q01DX009 (ip), vehicle: Klucel (hydroxypropylcellulose) (HPC)
[5] = dose: 400.0 mg/kg/injection, schedule: Q01DX009 (ip), vehicle: Klucel (hydroxypropylcellulose) (HPC)
[6] = dose: 25.0 mg/kg/injection, schedule: Q04DX003 (ip), vehicle: saline
[7] = dose: 50.0 mg/kg/injection, schedule: Q04DX003 (ip), vehicle: Klucel (hydroxypropylcellulose) (HPC)
[8] = dose: 50.0 mg/kg/injection, schedule: Q04DX003 (ip), vehicle: saline
[9] = dose: 100.0 mg/kg/injection, schedule: Q04DX003 (ip), vehicle: Klucel (hydroxypropylcellulose) (HPC)
[10] = dose: 100.0 mg/kg/injection, schedule: Q04DX003 (ip), vehicle: saline
[11] = dose: 200.0 mg/kg/injection, schedule: Q04DX003 (ip), vehicle: Klucel (hydroxypropylcellulose) (HPC)
[12] = dose: 400.0 mg/kg/injection, schedule: Q04DX003 (ip), vehicle: Klucel (hydroxypropylcellulose) (HPC)
[13] = dose: 100.0 mg/kg/injection, schedule: Q01DX009 (ip), vehicle: saline
[14] = dose: 100.0 mg/kg/injection, schedule: Q04DX003 (ip), vehicle: saline with Tween-80
[15] = dose: 200.0 mg/kg/injection, schedule: Q04DX003 (ip), vehicle: saline with Tween-80
[16] = dose: 400.0 mg/kg/injection, schedule: Q04DX003 (ip), vehicle: saline with Tween-80
[17] = dose: 100.0 mg/kg/injection, schedule: Q01DX009 (ip), vehicle: saline with Tween-80
[18] = dose: 200.0 mg/kg/injection, schedule: Q01DX009 (ip), vehicle: saline with Tween-80
[19] = dose: 400.0 mg/kg/injection, schedule: Q01DX009 (ip), vehicle: saline with Tween-80

Measured: T/C

CCCNP(=O)(NCCC)OC1CC(C)(C)N(O)C(C)(C)C1
inactive: dose: 100.0 mg/kg/injection, schedule: Q04DX002 (ip), vehicle: water 90 % of control | dose: 200.0 mg/kg/injection, schedule: Q04DX002 (ip), vehicle: water 87 % of control | dose: 400.0 mg/kg/injection, schedule: Q04DX002 (ip), vehicle: water 97 % of control

O=C1NC(C(=O)O)CC1O (centres undefined)
inactive: [1] 100 % of control | [2] 95 % of control and 97 % of control | dose: 200.0 mg/kg/injection, schedule: Q01DX001 (ip), vehicle: saline 98 % of control and 88 % of control | dose: 400.0 mg/kg/injection, schedule: Q01DX001 (ip), vehicle: saline 97 % of control

COc1ccc(Cl)cc1NC(=O)c1cccc(Cl)c1
inactive: [3] 110 % of control | [4] 110 % of control | [5] 104 % of control

NC(=O)CCl
inactive: dose: 12.5 mg/kg/injection, schedule: Q04DX003 (ip), vehicle: Klucel (hydroxypropylcellulose) (HPC) 92 % of control | dose: 25.0 mg/kg/injection, schedule: Q04DX003 (ip), vehicle: Klucel (hydroxypropylcellulose) (HPC) 95 % of control | [6] 102 % of control | [7] 100 % of control | [8] 97 % of control | [9] 101 % of control | [10] 100 % of control

Oc1c(Cl)cc(Cl)cc1/C=N/Nc1nnc(N/N=C/c2cc(Cl)cc(Cl)c2O)c2ccccc12
inactive: dose: 50.0 mg/kg/injection, schedule: Q01DX001 (ip), vehicle: other 111 % of control | dose: 100.0 mg/kg/injection, schedule: Q01DX001 (ip), vehicle: other 101 % of control | dose: 200.0 mg/kg/injection, schedule: Q01DX001 (ip), vehicle: other 102 % of control | dose: 400.0 mg/kg/injection, schedule: Q01DX001 (ip), vehicle: other 102 % of control

CCN(CC)CCNC(=O)c1ccc(N=Cc2cc(Br)ccc2O)cc1
inactive: [3] 98 % of control | [4] 96 % of control

CCC1CSC(=S)N1 (centres undefined)
inactive: dose: 3.12 mg/kg/injection, schedule: Q01DX009 (ip), vehicle: acetone 92 % of control | dose: 3.12 mg/kg/injection, schedule: Q04DX003 (ip), vehicle: saline 103 % of control | dose: 6.25 mg/kg/injection, schedule: Q01DX009 (ip), vehicle: acetone 102 % of control | dose: 6.25 mg/kg/injection, schedule: Q04DX003 (ip), vehicle: saline 101 % of control | dose: 12.5 mg/kg/injection, schedule: Q04DX003 (ip), vehicle: saline 102 % of control

O=C1c2cc([N+](=O)[O-])ccc2SC2C=CSC12 (centres undefined)
inactive: dose: 100.0 mg/kg/injection, schedule: Q01DX001 (ip), vehicle: carboxymethylcellulose (CMC) 94 % of control | dose: 200.0 mg/kg/injection, schedule: Q01DX001 (ip), vehicle: carboxymethylcellulose (CMC) 108 % of control | dose: 400.0 mg/kg/injection, schedule: Q01DX001 (ip), vehicle: carboxymethylcellulose (CMC) 100 % of control

CC(C)(C)NP(=O)(NC(C)(C)C)c1ccc([N+](=O)[O-])cc1
inactive: dose: 100.0 mg/kg/injection, schedule: Q04DX003 (ip), vehicle: acetone 100 % of control | dose: 400.0 mg/kg/injection, schedule: Q04DX003 (ip), vehicle: acetone 93 % of control

CC(=O)N/N=C(/C)C(=O)O
inactive: dose: 50.0 mg/kg/injection, schedule: Q01DX009 (ip), vehicle: water 100 % of control | dose: 100.0 mg/kg/injection, schedule: Q01DX009 (ip), vehicle: water 100 % of control | dose: 100.0 mg/kg/injection, schedule: Q04DX003 (ip), vehicle: water 97 % of control | dose: 200.0 mg/kg/injection, schedule: Q04DX003 (ip), vehicle: water 106 % of control

CCOC(=O)C(Br)C(Br)c1ccccc1 (centres undefined)
inactive: [10] 103 % of control | dose: 200.0 mg/kg/injection, schedule: Q04DX003 (ip), vehicle: saline 108 % of control | dose: 400.0 mg/kg/injection, schedule: Q04DX003 (ip), vehicle: saline 98 % of control

CC1(C)OC2OC(COS(C)(=O)=O)C(O)C2O1 (centres undefined)
inactive: dose: 12.5 mg/kg/injection, schedule: Q01DX009 (ip), vehicle: Klucel (hydroxypropylcellulose) (HPC) 100 % of control | dose: 25.0 mg/kg/injection, schedule: Q01DX009 (ip), vehicle: Klucel (hydroxypropylcellulose) (HPC) 105 % of control | dose: 50.0 mg/kg/injection, schedule: Q01DX009 (ip), vehicle: Klucel (hydroxypropylcellulose) (HPC) 105 % of control | [7] 92 % of control | [3] 103 % of control | [9] 100 % of control | [11] 91 % of control | [12] 102 % of control

O=[N+]([O-])C(CO)(CO)CC(F)(F)F
inactive: dose: 3.13 mg/kg/injection, schedule: Q01DX009 (ip), vehicle: saline 96 % of control | dose: 6.25 mg/kg/injection, schedule: Q01DX009 (ip), vehicle: saline 98 % of control | dose: 12.5 mg/kg/injection, schedule: Q01DX009 (ip), vehicle: saline 102 % of control

O=C1c2cccc3c2C2(C45c6c7cccc6C(=O)c6cccc(c64)C(=O)c4cccc(c45)C7=O)c4c1cccc4C(=O)c1cccc(c12)C3=O
inactive: [13] 103 % of control | [14] 94 % of control | dose: 200.0 mg/kg/injection, schedule: Q01DX009 (ip), vehicle: saline 95 % of control | [15] 107 % of control | dose: 400.0 mg/kg/injection, schedule: Q01DX009 (ip), vehicle: saline 95 % of control | [16] 94 % of control

O=C(O)c1c2ccccc2nc2ccccc12
inactive: [1] 102 % of control | [2] 111 % of control

C1CCN(CCC2CCNCC2)C1
inactive: dose: 25.0 mg/kg/injection, schedule: Q01DX009 (ip), vehicle: saline 106 % of control | [6] 97 % of control | dose: 50.0 mg/kg/injection, schedule: Q01DX009 (ip), vehicle: saline 95 % of control | [8] 97 % of control | [13] 106 % of control | [10] 96 % of control and 100 % of control

C=CCCCCCCCCC(=O)NCc1cccnc1
inactive: [17] 96 % of control | [18] 94 % of control | [19] 102 % of control

C/C=C/C=N/n1c(CCC)nc2ccccc2c1=O
inactive: dose: 100.0 mg/kg/injection, schedule: Q04DX002 (ip), vehicle: Klucel (hydroxypropylcellulose) (HPC) 90 % of control | dose: 200.0 mg/kg/injection, schedule: Q04DX002 (ip), vehicle: Klucel (hydroxypropylcellulose) (HPC) 104 % of control

CCCCC(C#N)(CCCC)C(=O)OCC
inactive: [14] 93 % of control | [15] 98 % of control

CCCCCCCCCCCCCCCCCC
inactive: dose: 100.0 mg/kg/injection, schedule: Q04DX002 (ip), vehicle: other 96 % of control | dose: 200.0 mg/kg/injection, schedule: Q04DX002 (ip), vehicle: other 92 % of control

CCCCCCCCCCCCCCCCCCOC(=O)C(C(C)=O)C(c1cccc([N+](=O)[O-])c1)C(C(C)=O)C(=O)O (centres undefined)
inactive: dose: 25.6 mg/kg/injection, schedule: Q04DX002 (ip), vehicle: saline with Tween-80 87 % of control | dose: 64.0 mg/kg/injection, schedule: Q04DX002 (ip), vehicle: saline with Tween-80 95 % of control | [14] 90 % of control | dose: 160.0 mg/kg/injection, schedule: Q04DX002 (ip), vehicle: saline with Tween-80 95 % of control | dose: 400.0 mg/kg/injection, schedule: Q04DX002 (ip), vehicle: saline with Tween-80 91 % of control | [16] 92 % of control

Cc1cccc(NC(=O)NC2CCC(CC3CCCCC3)CC2)c1 (centres undefined)
inactive: [3] 106 % of control | [9] 97 % of control | [4] 97 % of control | [11] 101 % of control | [5] 95 % of control | [12] 101 % of control

CC1(C)CC(=O)N/C1=C\C1NC(=O)CC1(C)C (centres undefined)
inactive: [17] 96 % of control | [18] 104 % of control | [19] 102 % of control
